Results published in patent publication US7235576B1, “Omega-carboxyaryl substituted diphenyl ureas as raf kinase inhibitors” (Bayer Pharmaceuticals Corporation, priority 2001, dated 2007).

Row | melting point [°C] | SMILES
1 | 228 to 230 | COC(=O)c1ccc(Oc2ccc(NC(=O)Nc3ccc(Cl)c(C(F)(F)F)c3)cc2)cn1 [Entry 55, N-(4-chloro-3-(trifluoromethyl)phenyl)-N′-(4-(2-(methoxycarbonyl)-5-pyridyloxy)phenyl)urea]
2 | 125 to 130 | CNC(=O)c1cc(Oc2ccc(NC(=O)Nc3ccc(Oc4ccnc(C(=O)NC)c4)cc3)cc2)ccn1 [Entry 103, bis(4-(2-(N-methylcarbamoyl)-4-pyridyloxy)phenyl)urea]
